According to patent US9242987B2, “Heterocyclyl pyrazolopyrimidine analogues as JAK inhibitors” (Cellzome Limited, priority 2009, dated 2016):

Experiments:
JAK2 = target: T1, JAK2 (Homo sapiens, UniProt O60674); experiment: Kinobeads assay, JAK2; format: binding; conditions: mixed Molt4/Ramos cell lysate, dot blot detection
T1 construct: endogenous in cells; host or cells: Mixed Molt4/Ramos lysate (1:2)
Procedure: (§1) The compounds of the present invention as described in the previous examples were tested in a Kinobeads™ assay as described for ZAP-70 (WO-A 2007/137867). Briefly, test compounds (at various concentrations) and the affinity matrix with the immobilized aminopyrido-pyrimidine ligand 24 were added to cell lysate aliquots and allowed to bind to the proteins in the lysate sample. After the incubation time the beads with captured proteins were separated from the lysate. Bound proteins were then eluted and the presence of JAK2 and JAK3 was detected and quantified using specific antibodies in a dot blot procedure and the Odyssey infrared detection system. Dose response curves for individual kinases were generated and IC50 values calculated. Kinobeads™ assays for ZAP-70 (WO-A 2007/137867) and for kinase selectivity profiling (WO-A 2006/134056) have been previously described.
(§2) The affinity matrix was washed two times with 15 mL of 1×DP buffer containing 0.2% NP40 (IGEPAL® CA-630, Sigma, #13021) and then resuspended in 1×DP buffer containing 0.2% NP40 (3% beads slurry).
(§3) 5×DP buffer: 250 mM Tris-HCl pH 7.4, 25% Glycerol, 7.5 mM MgCl2, 750 mM NaCl, 5 mM Na3VO4; filter the 5×DP buffer through a 0.22 μm filter and store in aliquots at −80° C. The 5×DP buffer is diluted with H2O to 1×DP buffer containing 1 mM DTT and 25 mM NaF.
(§4) Stock solutions of test compounds were prepared in DMSO. In a 96 well plate 30 μL solution of diluted test compounds at 5 mM in DMSO were prepared. Starting with this solution a 1:3 dilution series (9 steps) was prepared. For control experiments (no test compound) a buffer containing 2% DMSO was used.
(§5) Molt4 cells (ATCC catalogue number CRL-1582) and Ramos cells (ATCC catalogue number CRL-1596) were grown in 1 L Spinner flasks (Integra Biosciences, #182101) in suspension in RPMI 1640 medium (Invitrogen, #21875-034) supplemented with 10% Fetal Bovine Serum (Invitrogen) at a density between 0.15×10^6 and 1.2×10^6 cells/mL. Cells were harvested by centrifugation, washed once with 1×PBS buffer (Invitrogen, #14190-094) and cell pellets were frozen in liquid nitrogen and subsequently stored at −80° C. Cells were homogenized in a Potter S homogenizer in lysis buffer: 50 mM Tris-HCl, 0.8% NP40, 5% glycerol, 150 mM NaCl, 1.5 mM MgCl2, 25 mM NaF, 1 mM sodium vanadate, 1 mM DTT, pH 7.5. One complete EDTA-free tablet (protease inhibitor cocktail, Roche Diagnostics, 1873580) per 25 mL buffer was added. The material was dounced 10 times using a mechanized POTTER S, transferred to 50 mL falcon tubes, incubated for 30 minutes on ice and spun down for 10 minutes at 20,000 g at 4° C. (10,000 rpm in Sorvall SLA600, precooled). The supernatant was transferred to an ultracentrifuge (UZ)-polycarbonate tube (Beckmann, 355654) and spun for 1 hour at 100.000 g at 4° C. (33.500 rpm in Ti50.2, precooled). The supernatant was transferred again to a fresh 50 mL falcon tube, the protein concentration was determined by a Bradford assay (BioRad) and samples containing 50 mg of protein per aliquot were prepared. The samples were immediately used for experiments or frozen in liquid nitrogen and stored frozen at −80° C.
(§6) Cell lysate (approximately 50 mg protein per plate) was thawed in a water bath at room temperature and then stored on ice. To the thawed cell lysate 1×DP 0.8% NP40 buffer containing protease inhibitors (1 tablet for 25 mL buffer; EDTA-free protease inhibitor cocktail; Roche Diagnostics 1873580) was added in order to reach a final protein concentration of 10 mg/mL total protein. The diluted cell lysate was stored on ice. Mixed Molt4/Ramos lysate was prepared by combining one volume of Molt4 lysate and two volumes of Ramos lysate (ratio 1:2).
(§7) To a 96 well filter plate (Multiscreen HTS, BV Filter Plates, Millipore #MSBVN1250) were added per well: 100 μL affinity matrix (3% beads slurry), […], of compound solution, and 50 μL of diluted lysate. […]

JAK3 = target: T2, JAK3 (Homo sapiens, UniProt P52333); experiment: Kinobeads assay, JAK3; format: binding; conditions: mixed Molt4/Ramos cell lysate, dot blot detection
T2 construct: endogenous in cells; host or cells: Mixed Molt4/Ramos lysate (1:2)
T2 sequence (P52333 1-1124): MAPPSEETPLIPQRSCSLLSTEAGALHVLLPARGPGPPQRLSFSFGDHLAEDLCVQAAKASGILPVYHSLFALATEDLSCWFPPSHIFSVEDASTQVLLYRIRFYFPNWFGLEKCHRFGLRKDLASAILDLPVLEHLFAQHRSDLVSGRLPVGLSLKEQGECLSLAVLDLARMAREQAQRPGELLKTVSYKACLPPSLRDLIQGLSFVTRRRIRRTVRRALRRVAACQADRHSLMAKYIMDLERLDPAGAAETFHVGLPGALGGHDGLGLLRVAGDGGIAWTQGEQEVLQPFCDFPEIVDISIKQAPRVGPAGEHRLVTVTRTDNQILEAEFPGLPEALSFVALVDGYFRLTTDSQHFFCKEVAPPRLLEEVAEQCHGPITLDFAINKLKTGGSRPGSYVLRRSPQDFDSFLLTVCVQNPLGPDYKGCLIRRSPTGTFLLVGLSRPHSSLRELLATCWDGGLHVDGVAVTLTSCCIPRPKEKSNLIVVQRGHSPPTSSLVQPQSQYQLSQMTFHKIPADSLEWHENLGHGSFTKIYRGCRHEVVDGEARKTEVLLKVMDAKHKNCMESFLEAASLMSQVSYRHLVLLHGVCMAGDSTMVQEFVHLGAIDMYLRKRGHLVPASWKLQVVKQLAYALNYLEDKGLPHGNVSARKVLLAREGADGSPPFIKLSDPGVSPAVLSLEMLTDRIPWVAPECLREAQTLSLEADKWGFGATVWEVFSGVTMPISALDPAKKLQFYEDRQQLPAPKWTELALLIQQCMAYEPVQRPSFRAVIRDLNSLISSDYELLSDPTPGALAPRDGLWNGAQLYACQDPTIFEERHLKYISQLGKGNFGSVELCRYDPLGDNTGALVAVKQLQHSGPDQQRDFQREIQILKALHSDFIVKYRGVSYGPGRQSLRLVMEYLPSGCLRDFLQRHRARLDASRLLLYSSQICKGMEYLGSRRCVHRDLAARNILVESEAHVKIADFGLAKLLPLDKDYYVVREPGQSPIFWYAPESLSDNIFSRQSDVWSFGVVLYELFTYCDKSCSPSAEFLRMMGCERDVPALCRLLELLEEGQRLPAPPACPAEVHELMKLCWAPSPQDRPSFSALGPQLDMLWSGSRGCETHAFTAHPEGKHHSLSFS
Procedure: as §1, §2, §3, §4, §5, §6, §7

T1 sequence (O60674 whole entry): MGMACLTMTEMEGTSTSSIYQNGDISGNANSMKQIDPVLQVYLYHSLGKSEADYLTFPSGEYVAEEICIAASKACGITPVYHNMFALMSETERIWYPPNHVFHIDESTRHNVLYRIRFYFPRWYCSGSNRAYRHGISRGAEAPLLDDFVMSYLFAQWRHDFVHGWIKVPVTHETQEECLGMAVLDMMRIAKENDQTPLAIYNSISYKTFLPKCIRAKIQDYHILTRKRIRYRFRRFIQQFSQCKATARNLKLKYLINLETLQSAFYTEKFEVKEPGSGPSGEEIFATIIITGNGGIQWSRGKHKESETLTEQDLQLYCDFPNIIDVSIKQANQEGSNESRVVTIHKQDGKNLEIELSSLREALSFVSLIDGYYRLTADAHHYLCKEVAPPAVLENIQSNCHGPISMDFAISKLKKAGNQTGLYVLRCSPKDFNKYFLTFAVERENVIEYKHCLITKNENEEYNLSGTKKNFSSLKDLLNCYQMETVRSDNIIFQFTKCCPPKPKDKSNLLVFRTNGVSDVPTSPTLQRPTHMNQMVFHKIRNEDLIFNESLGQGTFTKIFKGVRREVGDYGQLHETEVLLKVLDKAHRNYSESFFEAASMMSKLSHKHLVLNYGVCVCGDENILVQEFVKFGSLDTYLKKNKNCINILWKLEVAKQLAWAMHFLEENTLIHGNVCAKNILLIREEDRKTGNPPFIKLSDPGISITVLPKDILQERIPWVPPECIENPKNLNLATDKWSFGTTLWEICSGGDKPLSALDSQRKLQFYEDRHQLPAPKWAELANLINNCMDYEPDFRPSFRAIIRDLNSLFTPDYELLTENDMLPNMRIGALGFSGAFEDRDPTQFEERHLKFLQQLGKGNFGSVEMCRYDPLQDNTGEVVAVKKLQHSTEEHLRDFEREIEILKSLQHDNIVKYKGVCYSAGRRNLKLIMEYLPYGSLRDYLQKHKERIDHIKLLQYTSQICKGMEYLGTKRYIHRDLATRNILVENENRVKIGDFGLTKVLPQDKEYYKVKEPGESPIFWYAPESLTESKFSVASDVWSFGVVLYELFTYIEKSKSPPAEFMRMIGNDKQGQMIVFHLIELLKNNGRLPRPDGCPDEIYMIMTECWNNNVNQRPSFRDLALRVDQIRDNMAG

IC50 (JAK2) [nM] | IC50 (JAK3) [nM] | SMILES
≥ 10000 | 100 to 1000 | Cc1c(Nc2ncc3cnn(Cc4ccccc4C#N)c3n2)cnn1C [Example 37, 2-((6-(1,5-Dimethyl-1H-pyrazol-4-ylamino)-1H-pyrazolo[3,4-d]pyrimidin-1-yl)methyl)benzonitrile]
≥ 10000 | 100 to 1000 | COc1nn(CC(F)(F)F)cc1Nc1ncc2cnn(Cc3ccccc3C#N)c2n1 [Example 38]
1000 to 10000 | < 100 | N#Cc1ccccc1Cn1ncc2cnc(Nc3cnn(CC(F)F)c3)nc21 [Example 39, 2-((6-(1-(2,2-Difluoroethyl)-1H-pyrazol-4-ylamino)-1H-pyrazolo[3,4-d]pyrimidin-1-yl)methyl)benzonitrile]
1000 to 10000 | 100 to 1000 | CNS(=O)(=O)c1ccc(-n2ncc3cnc(Nc4cnn(C)c4)nc32)cc1 [Example 40, N-Methyl-4-(6-(1-methyl-1H-pyrazol-4-ylamino)-1H-pyrazolo[3,4-d]pyrimidin-1-yl)benzenesulfonamide]
1000 to 10000 | 100 to 1000 | Cn1cc(Nc2ncc3cnn(Cc4ccccc4C(=O)O)c3n2)cn1 [Example 41, 2-((6-(1-Methyl-1H-pyrazol-4-ylamino)-1H-pyrazolo[3,4-d]pyrimidin-1-yl)methyl)benzoic acid]
1000 to 10000 | < 100 | NC(=O)c1ccccc1Cn1ncc2cnc(Nc3cnn(CC(F)F)c3)nc21 [Example 42, 2-((6-(1-(2,2-Difluoroethyl)-1H-pyrazol-4-ylamino)-1H-pyrazolo[3,4-d]pyrimidin-1-yl)methyl)benzamide]
1000 to 10000 | 100 to 1000 | Cc1nn(CC(F)F)cc1Nc1ncc2cnn(Cc3ccccc3C(N)=O)c2n1 [Example 43, 2-((6-(1-(2,2-Difluoroethyl)-3-methyl-1H-pyrazol-4-ylamino)-1H-pyrazolo[3,4-d]pyrimidin-1-yl)methyl)benzamide]
1000 to 10000 | < 100 | COc1nn(CCO)cc1Nc1ncc2cnn(Cc3ccccc3C#N)c2n1 [Example 44, 2-((6-(1-(2-Hydroxyethyl)-3-methoxy-1H-pyrazol-4-ylamino)-1H-pyrazolo[3,4-d]pyrimidin-1-yl)methyl)benzonitrile]
1000 to 10000 | < 100 | Cn1cc(Nc2ncc3cnn(Cc4cccnc4F)c3n2)cn1 [Example 45, 1-((2-Fluoropyridin-3-yl)methyl)-N-(1-methyl-1H-pyrazol-4-yl)-1H-pyrazolo[3,4-d]pyrimidin-6-amine]
1000 to 10000 | 100 to 1000 | Cn1cc(Nc2ncc3cnn(Cc4ccncc4F)c3n2)cn1 [Example 46, 1-((3-Fluoropyridin-4-yl)methyl)-N-(1-methyl-1H-pyrazol-4-yl)-1H-pyrazolo[3,4-d]pyrimidin-6-amine]
1000 to 10000 | 100 to 1000 | Cn1cc(Nc2ncc3cnn(Cc4ccc(F)cc4F)c3n2)cn1 [Example 47, 1-(2,4-Difluorobenzyl)-N-(1-methyl-1H-pyrazol-4-yl)-1H-pyrazolo[3,4-d]pyrimidin-6-amine]
1000 to 10000 | 100 to 1000 | Cn1cc(Nc2ncc3cnn(CCc4ccccc4)c3n2)cn1 [Example 48, N-(1-Methyl-1H-pyrazol-4-yl)-1-phenethyl-1H-pyrazolo[3,4-d]pyrimidin-6-amine]
1000 to 10000 | < 100 | COc1nn(CCO)cc1Nc1ncc2cnn(Cc3ccccc3F)c2n1 [Example 49, 2-(4-(1-(2-Fluorobenzyl)-1H-pyrazolo[3,4-d]pyrimidin-6-ylamino)-3-methoxy-1H-pyrazol-1-yl)ethanol]
1000 to 10000 | < 100 | COc1nn(CCO)cc1Nc1ncc2cnn(Cc3cccc(F)c3F)c2n1 [Example 50, 2-(4-(1-(2,3-Difluorobenzyl)-1H-pyrazolo[3,4-d]pyrimidin-6-ylamino)-3-methoxy-1H-pyrazol-1-yl)ethanol]
1000 to 10000 | < 100 | COc1nn(CCO)cc1Nc1ncc2cnn(Cc3cc(F)ccc3F)c2n1 [Example 51, 2-(4-(1-(2,5-Difluorobenzyl)-1H-pyrazolo[3,4-d]pyrimidin-6-ylamino)-3-methoxy-1H-pyrazol-1-yl)ethanol]
< 100 | < 100 | Cn1cc(Nc2ncc3cnn(Cc4cc(F)ccc4C#N)c3n2)cn1 [Example 52, 4-Fluoro-2-((6-(1-methyl-1H-pyrazol-4-ylamino)-1H-pyrazolo[3,4-d]pyrimidin-1-yl)methyl)benzonitrile]
< 100 | < 100 | Cn1cc(Nc2ncc3cnn(Cc4cc(F)ccc4C(N)=O)c3n2)cn1 [Example 53, 4-Fluoro-2-((6-(1-methyl-1H-pyrazol-4-ylamino)-1H-pyrazolo[3,4-d]pyrimidin-1-yl)methyl)benzamide]
1000 to 10000 | 100 to 1000 | Cn1cc(Nc2ncc3cnn(-c4ccc(NS(C)(=O)=O)cn4)c3n2)cn1 [Example 54, N-(6-(6-(1-Methyl-1H-pyrazol-4-ylamino)-1H-pyrazolo[3,4-d]pyrimidin-1-yl)pyridin-3-yl)methanesulfonamide]
1000 to 10000 | 100 to 1000 | Cc1nc(-n2ncc3cnc(Nc4cnn(C)c4)nc32)ccc1NS(C)(=O)=O [Example 55, N-(2-Methyl-6-(6-(1-methyl-1H-pyrazol-4-ylamino)-1H-pyrazolo[3,4-d]pyrimidin-1-yl)pyridin-3-yl)methanesulfonamide]
1000 to 10000 | 100 to 1000 | Cn1cc(Nc2ncc3cnn(-c4ccc(F)cc4)c3n2)cn1 [Example 56, 1-(4-Fluorophenyl)-N-(1-methyl-1H-pyrazol-4-yl)-1H-pyrazolo[3,4-d]pyrimidin-6-amine]
